Drawing on a melting point compilation (Tetko et al.; mined from patent text by program, amines drawn as free bases though some values may be those of a salt), this text covers melting point for 61 molecules.

As for `COc1cc(N)c(Cl)cc1C(=O)NCC1CCN(CCCCCC(=O)c2cn(C)c3ccccc23)CC1`, the melting point (as a rule, the temperature of the solid-liquid transition) was in the range of 125 to 127 °C.

For `CCOC(=O)c1cn(-c2cccnc2)nc1N`, the melting point was in the range of 140 to 141 °C.

Take `COc1cc(C(=O)NS(=O)(=O)c2ccccc2C)ccc1Cc1cn(C)c2ccc(CC3CCN(C)C3=O)cc12` (stereo unspecified): the melting point is 115 to 135 °C.

`Clc1cc(Cl)c2nc3c4ccccc4c4ccccc4c3nc2c1` came in with a melting point of 221 to 222 °C.

`CN(CC#N)[C@H](COCc1cc(C(F)(F)F)cc(C(F)(F)F)c1)c1ccccc1` showed a melting point of 110 to 111 °C.

`COC(=O)c1cc(-c2ccc3c(=O)[nH]c(=O)[nH]c3n2)ccc1OC` yielded a melting point of 301 to 303 °C.

`ClCCCCn1c2c(c3ccccc31)CCSc1ccccc1-2` showed a melting point of 75 °C.

Molecule `CC(C)(C)OC(=O)N1CCN(c2ccc(NC=O)nc2)CC1` registered a melting point of 178 to 180 °C.

On to `Cc1cc(CC(=O)N[C@H]2CC[C@H](CCN3CCN(c4nccc5c4CCO5)CC3)CC2)on1`, for which the melting point was found to be 172 °C.

Regarding `Cc1cc(C2=C(C=CC3CC(O)CC(=O)O3)C(C)(C)CC(N3CCCC3)C2)ccc1F` (stereo unspecified), the melting point is 120 to 123 °C.

Consider `CCCCNC(=O)C1Cc2c([nH]c3ccccc23)C(c2ccc3c(c2)OCO3)N1C(=O)C=Cc1ccccc1` (stereo unspecified), for which the melting point was 114 to 117 °C.

In turn, `Clc1cc(-c2ccnc(NCC3CCCO3)n2)ccn1` (stereo unspecified) registered a melting point of 74 to 75 °C.

As for `CCCCCCCNC(=O)Nc1c(C(=O)NC2CCN(C(c3ccccc3)c3ccccc3)CC2)cccc1C(C)C`, the melting point is 209 to 212 °C.

Molecule `OCC(O)CN1CCN(c2nccs2)CC1` (stereo unspecified) gave a melting point of 138 to 139 °C.

On to `CCOC(=O)c1c(C(F)(F)F)nc(C(F)(F)Cl)c(C(=O)OC)c1NN1CCCC1`, for which the melting point is 101 to 103 °C.

Regarding `CC(C)c1cc(CO)cc(C(C)C)c1NC(=O)CN1CCN(CCSc2nc3cccc(C(F)(F)F)c3o2)CC1`, the melting point fell in the range of 146 to 148 °C.

On to `COC(=O)c1ccnc(N2CCN(Cc3ccc(F)cc3)C2=O)c1`, for which the melting point was in the range of 119 to 121 °C.

The molecule `CC(=O)Nc1cccc(C(=O)Nc2cc(NC(=O)c3cccc(N(C)C)c3)ccc2C)c1` gave a melting point of 178 to 179 °C.

`O=Cc1cn(C(c2ccccc2)(c2ccccc2)c2ccccc2)c(F)n1` returned a melting point of 177 to 179 °C.

Take `O=C(COc1ccc(-c2c(Cl)c(CN3C(=O)CCC3=O)nc3sc4c(c23)CCS(=O)C4)cc1)NCc1ccccc1` (stereo unspecified): the melting point was 220 to 221 °C.

Regarding `N#Cc1cc(Br)c(O)c([N+](=O)[O-])c1`, the melting point is 162 to 164 °C.

Consider `O=S(=O)(c1cc(Br)c(-c2ccc(Cl)cc2)[nH]1)C(F)(F)F`, for which the melting point is 155 to 159 °C.

As for `Cn1c(Oc2cccc(C(F)(F)F)c2)nc2c(-c3cccc(C(=O)NCC(N)=O)c3)cccc21`, the melting point lay within 185 to 186 °C.

`CS(=O)(=O)Nc1cccc(C=C2c3ccc(Cl)cc3CCc3cc(Cl)ccc32)c1` returned a melting point of 182 °C.

`O=C1NC(=O)C(CCCc2ccc(O)cc2)O1` (stereo unspecified) yielded a melting point of 132 to 133 °C.

As to `Cc1oc(-c2ccccc2)nc1CCOc1ccc(CC(C(=O)O)c2ccccc2)cc1` (stereo unspecified), the melting point fell in the range of 124 to 125 °C.

Consider `CCCCCCCc1ccnc2c(O)cccc12`, for which the melting point fell in the range of 92 to 93.5 °C.

In the case of `COc1ccc(CC(C)=O)cc1S(N)(=O)=O`, the melting point was in the range of 194 to 196 °C.

As for `CCOCc1nc2c(N)nc(C)c(C)c2n1CCOCCCc1cccnc1`, the melting point was in the range of 78 to 78.5 °C.

Molecule `O=C(NCCN1CCCCC1)c1ccc(-c2ccc3nnn(Cc4ccc5ncccc5c4)c3n2)cc1` came in with a melting point of 104 to 107 °C.

Regarding `CCCCn1c(=O)c(N)c(-c2cccc(OC)c2)c2cccnc21`, the melting point was 138 to 141 °C.

Take `Cc1cc2c(cc1C(C)O)OCO2` (stereo unspecified): the melting point was in the range of 61 to 62 °C.

`Cn1c(CCNC(=O)C(F)(F)F)cc2ccccc21` registered a melting point of 124 to 126 °C.

Molecule `CC(=O)CC(=O)NC(=O)C(C)C` yielded a melting point of 148 to 160 °C.

On to `CCCCCc1nc2c(Nc3ccc(Cl)c(Cl)c3)nc3ccccc3c2[nH]1`, for which the melting point is 195 to 200 °C.

`COC(=O)[C@@]1(C)Oc2ccccc2N(C)C1=O` had a melting point of 76 to 78 °C.

With `CS(=O)(=O)c1ccc(NC(=O)c2ccccc2Br)cc1`, the melting point was 168 to 169 °C.

As to `CC12C=CC(=O)C=C1CCC1C2C(=O)CC2(C)C(SCc3ccc(Cl)c(Cl)c3)CCC12` (stereo unspecified), the melting point fell in the range of 131 to 133 °C.

Consider `CCC1(C(=O)C(=O)NC(C)(C)C)CC1`, for which the melting point fell in the range of 37.5 to 39 °C.

Molecule `CCCc1c(Cl)c2cc(Br)ccc2oc1=O` yielded a melting point of 96 to 97 °C.

Molecule `COC(=O)c1ccc(CN2C(=O)C3(COc4cc5c(cc43)OCCO5)c3ccccc32)o1` (stereo unspecified) yielded a melting point of 88 to 92 °C.

In turn, `CC(C)(C)OC(=O)Nc1cc(N2CCC(OC3CCCCO3)CC2)c(-c2ccc(F)cc2)cc1NC(=O)CC(=O)c1cccc(-n2ccnc2)c1` (racemic) registered a melting point of 129 to 132 °C.

For the molecule `CCCc1nc(SC(F)F)c(C(=O)O)n1Cc1ccc(-c2ccccc2S(=O)(=O)NC(=O)NCc2ccccc2Cl)cc1`, the melting point worked out at 134 °C.

Consider `Cc1ccc2c(n1)CC(c1ccccc1)CC2=O` (stereo unspecified), for which the melting point was 79 to 81 °C.

Regarding `CC(=O)NC[C@H]1CN(c2ccc(N3CCC(COc4ccon4)CC3)c(F)c2)C(=O)O1`, the melting point lay in the range of 163 to 165 °C.

With `O=C(Nc1ccccc1N1CCc2ccccc21)c1ccccc1`, the melting point fell in the range of 73 to 76 °C.

The molecule `Nc1ccc(C2=Nn3ccnc3Cc3cc4c(cc32)OCO4)cc1` displayed a melting point of 264 to 265 °C.

For the molecule `Cc1ccc(C(=O)Nc2ccc(C=O)c(C(F)(F)F)c2)cc1Br`, the melting point was 194 to 195 °C.

`Cc1cc(C)c2cccc(OCc3c(Cl)ccc(S(=O)(=O)N4CCC[C@H]4C(=O)NCCCNC(=O)c4cccc(C=NN)c4)c3Cl)c2n1` returned a melting point of 116 to 120 °C.

`CC(C)(C)C(=O)Oc1ccc(OC(=O)C(C)(C)C)c(C(=O)OCc2ccccc2)c1` displayed a melting point of 90.5 to 91.8 °C.

For the molecule `O=C(O)c1cn(C2CC2)c2nc(N3CCC(c4ccncc4)C3)c(F)cc2c1=O` (stereo unspecified), the melting point lay in the range of 223 to 225 °C.

Take `CCS(=O)(=O)Nc1cc(C(=O)Nc2ccccc2)ccc1OC`: the melting point fell in the range of 175 to 177 °C.

For `N#CC1=C(C2CCCCCC2)Nc2n[nH]cc2C1c1cccc(C#N)c1Br` (stereo unspecified), the melting point came out at 252 °C.

For `CC(C)c1ccc2c(c1)c(-c1ccccc1Cl)c(NC(=O)Nc1cccc(C(F)(F)F)c1)c(=O)n2C`, the melting point was in the range of 209 to 210 °C.

`Cc1cc(C#N)cc(C(=O)c2c(C(C)C)c(=O)[nH]c(=O)n2CC2(CC(=O)O)CC2)c1` registered a melting point of 244 to 245 °C.

Regarding `O=c1[nH]ncn1N=Cc1cccnc1`, the melting point fell in the range of 264 to 265 °C.

`O=C(CC1COC1)N[C@H]1CC[C@H](CCN2CCN(c3nccc4c3CCO4)CC2)CC1` had a melting point of 195 °C.

For the molecule `Cc1nnc(-c2ccc3occ(-c4ccc(C(=O)N(C)C)c(F)c4)c3c2)o1`, the melting point was in the range of 152 to 153 °C.

Turning to `CC1CCCC(C)(C)C1C(O)c1ccc(C(N)=NO)c(F)c1` (stereo unspecified), the melting point is 154 to 156 °C.

`COc1ccc2c(OCc3cc(OC)c(F)cc3Br)cccc2c1` showed a melting point of 138 to 142 °C.

In turn, `Cc1ccc(C)c2c(OCCNC(=O)OC(C)(C)C)noc12` returned a melting point of 78 to 79 °C.
